Experimental data taken from patent US20150080475A1, “Memantine Protects Inflammation-Related Degeneration of Dopamine Neurons Through Inhibition of Over-Activated Microglia and Release of Neurotrophic Factors From Astroglia” (priority 2009, published 2015).

Key:
Format in all cases: cell-based
[1] = tested on: DA neurons; experiment: [3H] DA uptake, MMT alone in rat mesencephalic neuron-glia cultures (neurotrophic effect); details: for increase of DA uptake capacity by MMT alone: one week
Procedure: Rat and mouse ventral mesencephalic neuron-glia cultures were prepared using a described protocol (Gao H M, Hong J S, Zhang W Q, Liu B (2002) Distinct Role for Microglia in Rotenone-Induced Degeneration of Dopaminergic Neurons. J Neurosci 22(3):782-790). Briefly, midbrain tissues were dissected from day 14 Fisher 344 rat embryos or day 14 mouse embryos (PHOX^+/+ or PHOX^−/−). Cells were dissociated via gentle mechanical trituration in minimum essential medium (MEM) and immediately seeded (5×10^5/well) in poly D-lysine (20 μg/mL) precoated 24-well plates. Cells were seeded in maintenance media and treated with the treatment media described previously (Gao H M, Hong J S, Zhang W Q, Liu B (2002) Distinct Role for Microglia in Rotenone-Induced Degeneration of Dopaminergic Neurons. J Neurosci 22(3):782-790). Three days after seeding, the cells were replenished with 500 μL of fresh maintenance media. Cultures were exposed 7 days after seeding. At the time of treatment, the composition of the cultures was approximately 48% astrocytes, 11% microglia, 40% neurons, and 1 to 1.5% TH-immunoreactive (ir) neurons.
(§1) Cells were incubated in Krebs-Ringer buffer (16 mM NaH2PO4, 1.2 mM MgSO4, 1.3 mM EDTA, […], for 21 min at 37° C. with 1 μM [^3H] DA. Nonspecific uptake was blocked for DA with 10 μM mazindole. After incubation, cells were washed three times with 1 mL/well of ice-cold Krebs-Ringer buffer. Cells were then lysed with 0.5 mL/well of 1 N NaOH and mixed with 15 mL of scintillation fluid. Radioactivity was measured on a scintillation counter, where specific [^3H] DA uptake was calculated by subtracting the mazindole.
Rat mesencephalic neuron-glia cultures were pretreated for 30 min with vehicle or 1, 3, 10 μM MMT before adding LPS (2.5 to 5 ng/ml) to the cultures. One week later, the neurotoxic effect of LPS on DA neurons were assessed by both [H^3] DA uptake, which measures the functional capacity of high affinity uptake of DA cells and cell count of tyrosine hydroxylase-positive (TH-ir) cells. [H^3] […]

[2] = tested on: DA neurons; experiment: MPP+-induced reduction in DA uptake in neuron-enriched cultures; details: MMT 1, 3, or 10 μM pre-treatment
Procedure: Mesencephalic neuron-glia cultures were seeded (5×10^5/well) in 24 well plates precoated with poly D-lysine. Thirty-six hours postseeding, 5-10 μM cytosine β-D-arabinofuranoside was added to the culture. After 2 days, the cytosine β-D-arabinofuranoside was removed and replaced with fresh media. Neuron-enriched cultures are 98% pure, as indicated by ICC staining with OX-42 and GFAP antibodies. Neuron-enriched cultures were treated 7 days post-seeding. For microglia add-back cultures, the microglia were plated on top of the neuron-enriched culture at 6 days postseeding, resulting in the addition of either 10% (500 μL of 1×10^5) or 20% (500 μL of 2×10^5) microglia. […]
as §1
To determine whether the neuroprotective effect of MMT was dependent on the presence of glial cells, the effects of MMT on the neuron-enriched cultures were determined. […]

[3] = tested on: microglia; experiment: Superoxide assay (SOD-inhibitable WST-1 reduction) after LPS; details: 30 min after LPS
Procedure: Extracellular superoxide (O2^−) production from microglia was determined by measuring the superoxide dismutase (SOD) inhibitable reduction of 2-(4-lodophenyl)-3-(4-nitrophenyl)-5-(2,4,-disulfophenyl)-2H-tetrazolium, monosodium salt, WST-1. Briefly, 200 μL of primary enriched-microglia were seeded (1×10^5/well) in 96-well plates. The cells were then incubated for 24 h at 37° C. in a humidified atmosphere of 5% CO2 and 95% air. Immediately before treatment, cells were washed twice with Hanks balanced salt solution (HBSS). To each well, 100 μL of HBSS with or without SOD (600 U/mL), 50 μL of vehicle or LPS, and 50 μL of WST-1 (1 mM) in HBSS were added. The cultures were incubated for 30 min at 37° C. and 5% CO2 and 95% air. The absorbance at 450 nm was read with a Spectra Max Plus microtiter plate spectrophotometer (Molecular Devices, Sunnyvale, Calif., USA). […] The amount of SOD-inhibitable superoxide was calculated and expressed as percent of vehicle-treated control cultures.
(§2) Neuron-glia cultures were pretreated for 30 min with MMT (3 μM) or vehicle before LPS stimulation. […] Production of superoxide (30 min after LPS) and iROS (2 h after LPS) was decreased by MMT treatment (FIGS. 6A and 6B). […] The production of PGE2 in cultures pretreated with 3 and 10 μM MMT decreased by 23% and 27% respectively (FIG. 6E).

[4] = tested on: microglia; experiment: Intracellular reactive oxygen species assay (DCFH oxidation) after LPS; details: 2 h after LPS
Procedure: The production of intracellular reactive oxygen species (ROS) was measured by DCFH oxidation. The DCFH-DA reagent passively enters cell where it is de-acetylated by esterase to nonfluorescent DCFH. Inside the cell, DCFH reacts with ROS to form DCF, the fluorescent product. For this assay, 10 mM DCFH-DA was dissolved in methanol and was diluted 500-fold in HBSS to give a 20 μM concentration of DCFH-DA. Enriched-microglia cultures seeded (5×10^4) in 96-well plates were then exposed to DCFH-DA for 1 h, followed by treatment with HBSS containing several concentrations of LPS or substance P for 2 h. After incubation, the fluorescence was read at the 485 nm excitation and 530 nm emission on a fluorescence plate reader. […] To calculate the amount of intracellular ROS produced, the mean control treatment was subtracted from the mean treatment group.
as §2

[5] = tested on: astrocyte, and micrglia; experiment: BrdU cytogenesis test in rat primary midbrain neuron-glia cultures; details: 10 μM MMT, 24 hours
Procedure: Rat primary mesencephalic neuron-glia cultures seeded in a 24-well culture plate at density of 5×10^5 per well were treated with 10 μM MMT or its vehicle, and simultaneously with 1 μl Brdu seven days after seeding. 24 hours later, the cultures was fixed with 3.7% of PDF for GFAF, iba-1, and DAPI staining.
In addition to the pre-treatment experiments, similar studies using post-treatment designs were conducted to determine the efficacy of MMT. In these experiments, neuron-glia cultures were either treated with MMT (10 μM) and LPS (2.5 ng/ml) at the same time, or MMT was added 30, 60, 120 or 180 min after the addition of LPS. One week later, DA uptake of the culture was assayed.

CC12CC3CC(C)(C1)CC(N)(C3)C2.Cl [MMT, 1-amino-3,5-dimethyladamantane hydrochloride]
increase of DA uptake capacity by MMT alone ([1]; 3 μM MMT): 30%
increase of DA uptake capacity by MMT alone ([1]; 10 μM MMT): 80%
effect against spontaneous DA neurons death ([1]; MMT alone, rat primary midbrain neuron-glia cultures): dose-dependent surviving-promoting effects
protection against MPP+-induced reduction in DA uptake [2]: failed to protect
production of superoxide [3]: decreased
production of iROS [4]: decreased
proliferation of astrocyte and microglia compared with control [5]: does not induce more proliferation
